According to paper PMC8342319, “Predicting blood-to-plasma concentration ratios of drugs from chemical structures and volumes of distribution in humans” (Molecular Diversity, 2021):

Tests used:
[1] = human
plasma protein [2] = test: in vitro; details: human
Experimental: (§1) Pooled human plasma was obtained from heparinized blood from nine to ten healthy volunteers not medicated for at least seven days. The human blood collection and PPB experimental protocols were approved by the Ethical Review Committee of Japan Tobacco Inc, Central Pharmaceutical Research Institute. Informed consent was obtained from all subjects, and the PPB experiments were conducted in accordance with the Ethical Guidelines for Medical and Health Research Involving Human Subjects. Binding of compounds to plasma protein was evaluated by equilibrium dialysis utilizing a 96-well equilibrium dialysis unit and HTD96b dialysis membrane strips with a molecular cutoff of 12–14 kDa (HTDialysis, Gales Ferry, CT, USA). Plasma containing the compounds (final concentration of 5 µM) and buffer (Dulbecco’s phosphate-buffered saline; Thermo Fisher Scientific, Waltham, MA) were added into the donor and receiver cells, respectively. Following dialysis for 5 h at 37 °C, the concentrations of the compounds in the plasma and buffer were determined by liquid chromatography–tandem mass spectrometry (LC–MS/MS) (Acquity™ Ultra Performance LC I-Class and Xevo TQ-S; Waters, Milford, MA). The percentage of free fraction (fu) was calculated according to the following equation [17]:1 Freefraction(fu,%)=Concentrationofbuffer/Concentrationofplasma×100

[3] = human; median if multiple values were reported; ref numbers in Table S1; cited from earlier work
[4] = human, in vivo, iv; cited from earlier work
[5] = human, intravenous; median if multiple values were reported; ref numbers in Table S1; cited from earlier work
plasma protein [6] = test: Measurement of PPB by equilibrium dialysis in pooled human plasma (free fraction); details: human plasma free fraction; footnote b: fu is our experimental data
Experimental: as §1

SMILES: NCC1(CC(=O)O)CCCCC1 [Gabapentin]
- in vivo MRT_(hr)_Human [1]: 7.500 h
- fraction unbound (plasma protein [2]): 1
- Rb_Human (blood-to-plasma concentration ratio) [3]: 1.10
- in vivo Vd_(L/kg)_Human [4]: 0.765 L/kg
- in vivo CL_(L/hr/kg)_Human [5]: 0.102 L/h/kg
- fp_Human (plasma protein [6]): 1.000
